Assay results from patent US12509444B2, “Compounds and methods for CD73 modulation and indications therefor” (Plexxikon Inc., priority 2019, dated 2025).

Key:
[1] = target: T1, Human CD73 (amino acid residues 27-549) (Homo sapiens, UniProt P21589); test: CD73 enzymatic assay (luciferase-based indirect assay, CellTiter-Glo); assay type: biochemical; details: 0.4 nM CD73, 150 μM AMP, 1 hour at room temperature
T1 construct: Human CD73 (amino acid residues 27-549); His tag (N); made in house; host or cells: E. coli
T1 sequence (P21589 27-549): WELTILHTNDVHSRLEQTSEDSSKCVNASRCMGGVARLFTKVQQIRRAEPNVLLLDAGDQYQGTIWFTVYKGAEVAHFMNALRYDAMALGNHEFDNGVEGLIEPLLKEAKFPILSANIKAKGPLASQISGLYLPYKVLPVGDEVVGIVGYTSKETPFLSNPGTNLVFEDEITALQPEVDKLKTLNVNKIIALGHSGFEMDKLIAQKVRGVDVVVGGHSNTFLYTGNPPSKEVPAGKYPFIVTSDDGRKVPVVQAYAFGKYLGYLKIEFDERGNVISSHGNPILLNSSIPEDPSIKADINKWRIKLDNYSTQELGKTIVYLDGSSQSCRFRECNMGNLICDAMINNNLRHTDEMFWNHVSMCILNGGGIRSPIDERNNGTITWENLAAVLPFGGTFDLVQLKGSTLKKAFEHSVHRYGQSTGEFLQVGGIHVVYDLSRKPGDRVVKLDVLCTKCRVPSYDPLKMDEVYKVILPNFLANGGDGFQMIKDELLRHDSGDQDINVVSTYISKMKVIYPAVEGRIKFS
Procedure, shortened: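 Residual AMP inhibits luciferase, so luminescence reports CD73 turnover; read with CellTiter-Glo 2.0 plus 1 μM final ATP, 30 min. Reaction used 0.4 nM N-His CD73 (27-549, E. coli), 150 μM AMP, HEPES pH 7.4 with Tween 20, 1 h at room temperature. IC50 fitted by nonlinear regression.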

human CD73 = target: T2, human CD73 (Homo sapiens, UniProt P21589); test: Inhibitor activity against CD73 in cell based assay (CD73 expressing CHO-K1 cells); details: CHO-K1 cells expressing human CD73, 150 μM AMP, 4 hours of incubation; read-out: CHO-K1 CELL VARIANT: CD73 IC50
T2 construct: expressed in transfected cells
T2 sequence (P21589 27-549): T1 sequence (P21589 27-549)
Procedure, shortened: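 Residual supernatant AMP was quantified via CellTiter-Glo luminescence (1 μM ATP added, 30 min, room temperature) after a 4 h exposure of human CD73-expressing CHO-K1 cells to 150 μM AMP plus compound, top final 10 μM, 8 points. IC50 came from nonlinear regression of percent inhibition.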

| Structure (SMILES) | IC50 [1] [µM] | IC50 (human CD73) [µM] |
| --- | --- | --- |
| N#Cc1c(N2CC[C@@H](OC(=O)NC3CCCC3)C2)cnn(CCO)c1=O [P-0496, (R)-1-(5-cyano-1-(2-hydroxyethyl)-6-oxo-1,6-dihydropyridazin-4-yl)pyrrolidin-3-yl cyclopentylcarbamate] | 0.001 to 10 | 0.001 to 10 |
| N#Cc1c(N2CC[C@@H](OC(=O)NC3CCC(F)(F)CC3)C2)cnn(CCO)c1=O [P-0497, (R)-1-(5-cyano-1-(2-hydroxyethyl)-6-oxo-1,6-dihydropyridazin-4-yl)pyrrolidin-3-yl (4,4-difluorocyclohexyl)carbamate] | 0.001 to 10 | 0.001 to 10 |
| Cc1onc(C(=O)N2CCC(NC(=O)O[C@@H]3CCN(c4cn[nH]c(=O)c4Cl)C3)CC2)c1C [P-0498, (R)-1-(5-chloro-6-oxo-1,6-dihydropyridazin-4-yl)pyrrolidin-3-yl (1-(4,5-dimethylisoxazole-3-carbonyl)piperidin-4-yl)carbamate] | 0.001 to 10 | 0.001 to 10 |
| Cc1cc(C(=O)N2CCC(NC(=O)O[C@@H]3CCN(c4cn[nH]c(=O)c4Cl)C3)CC2)no1 [P-0499, (R)-1-(5-chloro-6-oxo-1,6-dihydropyridazin-4-yl)pyrrolidin-3-yl (1-(5-methylisoxazole-3-carbonyl)piperidin-4-yl)carbamate] | 0.001 to 10 | 0.001 to 10 |
| Cc1nc(C)c(C(=O)N2CCC(NC(=O)O[C@@H]3CCN(c4cn[nH]c(=O)c4Cl)C3)CC2)o1 [P-0500, (R)-1-(5-chloro-6-oxo-1,6-dihydropyridazin-4-yl)pyrrolidin-3-yl (1-(2,4-dimethyloxazole-5-carbonyl)piperidin-4-yl)carbamate] | 0.001 to 10 | 0.001 to 10 |
| Cc1nc(C(=O)N2CCC(NC(=O)O[C@@H]3CCN(c4cn[nH]c(=O)c4Cl)C3)CC2)cs1 [P-0501, (R)-1-(5-chloro-6-oxo-1,6-dihydropyridazin-4-yl)pyrrolidin-3-yl (1-(2-methylthiazole-4-carbonyl)piperidin-4-yl)carbamate] | 0.001 to 10 | 0.001 to 10 |
| Cc1occc1C(=O)N1CCC(NC(=O)O[C@@H]2CCN(c3cn[nH]c(=O)c3Cl)C2)CC1 [P-0502, (R)-1-(5-chloro-6-oxo-1,6-dihydropyridazin-4-yl)pyrrolidin-3-yl (1-(2-methylfuran-3-carbonyl)piperidin-4-yl)carbamate] | 0.001 to 10 | 0.001 to 10 |

More lines, now with the values ahead:

| IC50 [1] [µM] | IC50 (human CD73) [µM] | Structure (SMILES) |
| --- | --- | --- |
| 0.001 to 10 | 0.001 to 10 | Cc1ncoc1C(=O)N1CCC(NC(=O)O[C@@H]2CCN(c3cn[nH]c(=O)c3Cl)C2)CC1 [P-0503, (R)-1-(5-chloro-6-oxo-1,6-dihydropyridazin-4-yl)pyrrolidin-3-yl (1-(4-methyloxazole-5-carbonyl)piperidin-4-yl)carbamate] |
| 0.001 to 10 | 0.001 to 10 | Cc1noc(C)c1C(=O)N1CCC(NC(=O)O[C@@H]2CCN(c3cn[nH]c(=O)c3Cl)C2)CC1 [P-0504, (R)-1-(5-chloro-6-oxo-1,6-dihydropyridazin-4-yl)pyrrolidin-3-yl (1-(3,5-dimethylisoxazole-4-carbonyl)piperidin-4-yl)carbamate] |
| 0.001 to 10 | 0.001 to 10 | Cc1nonc1C(=O)N1CCC(NC(=O)O[C@@H]2CCN(c3cn[nH]c(=O)c3Cl)C2)CC1 [P-0505, (R)-1-(5-chloro-6-oxo-1,6-dihydropyridazin-4-yl)pyrrolidin-3-yl (1-(4-methyl-1,2,5-oxadiazole-3-carbonyl)piperidin-4-yl)carbamate] |
| 0.001 to 10 | 0.001 to 10 | O=C(NC1CCCC(F)(F)C1)O[C@H]1CN(c2cn[nH]c(=O)c2Cl)C[C@@H]1F (stereo partly drawn) [P-0506, (3S,4S)-1-(5-chloro-6-oxo-1,6-dihydropyridazin-4-yl)-4-fluoropyrrolidin-3-yl (3,3-difluorocyclohexyl)carbamate] |
| 0.001 to 10 | 0.001 to 10 | O=C(NC1CCCC(F)(F)C1)O[C@H]1CN(c2cnn(CCO)c(=O)c2Cl)C[C@@H]1F (stereo partly drawn) [P-0507, (3S,4S)-1-(5-chloro-1-(2-hydroxyethyl)-6-oxo-1,6-dihydropyridazin-4-yl)-4-fluoropyrrolidin-3-yl (3,3-difluorocyclohexyl)carbamate] |
